Measurements published in BindingDB's records for doi:10.1016/j.chembiol.2007.12.010 (Brandeis University, 2008).

Key:
Test in all cases: Enzyme Inhibition Assay
Settings in all cases: pH 8; 25 °C
[1] = molecular target: T1, Inosine-5-monophosphate dehydrogenase (Cryptosporidium parvum, UniProt Q5CPK7)
T1 sequence (Q5CPK7 whole entry): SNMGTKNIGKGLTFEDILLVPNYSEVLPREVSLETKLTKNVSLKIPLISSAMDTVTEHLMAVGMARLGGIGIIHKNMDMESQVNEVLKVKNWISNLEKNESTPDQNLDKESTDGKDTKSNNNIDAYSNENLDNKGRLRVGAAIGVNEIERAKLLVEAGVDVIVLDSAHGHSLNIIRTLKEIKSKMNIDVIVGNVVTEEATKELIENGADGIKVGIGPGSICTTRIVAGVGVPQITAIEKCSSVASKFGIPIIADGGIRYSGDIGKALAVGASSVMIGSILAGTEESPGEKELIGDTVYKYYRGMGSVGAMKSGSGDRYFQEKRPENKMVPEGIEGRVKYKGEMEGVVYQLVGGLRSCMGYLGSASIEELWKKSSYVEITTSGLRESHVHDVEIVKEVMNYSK
Description: (§1) Enzyme inhibition assay using recombinant human IMPDH1 and IMPDH2 and C.parvum were expressed in guaB strains of escherichia coli.

[2] = molecular target: Inosine-5'-monophosphate dehydrogenase 1 (Homo sapiens, UniProt P20839)
Description: as §1

[3] = molecular target: Inosine-5'-monophosphate dehydrogenase 2 (Homo sapiens, UniProt P12268)
Description: as §1

Sequence of Inosine-5'-monophosphate dehydrogenase 1 (P20839 whole entry): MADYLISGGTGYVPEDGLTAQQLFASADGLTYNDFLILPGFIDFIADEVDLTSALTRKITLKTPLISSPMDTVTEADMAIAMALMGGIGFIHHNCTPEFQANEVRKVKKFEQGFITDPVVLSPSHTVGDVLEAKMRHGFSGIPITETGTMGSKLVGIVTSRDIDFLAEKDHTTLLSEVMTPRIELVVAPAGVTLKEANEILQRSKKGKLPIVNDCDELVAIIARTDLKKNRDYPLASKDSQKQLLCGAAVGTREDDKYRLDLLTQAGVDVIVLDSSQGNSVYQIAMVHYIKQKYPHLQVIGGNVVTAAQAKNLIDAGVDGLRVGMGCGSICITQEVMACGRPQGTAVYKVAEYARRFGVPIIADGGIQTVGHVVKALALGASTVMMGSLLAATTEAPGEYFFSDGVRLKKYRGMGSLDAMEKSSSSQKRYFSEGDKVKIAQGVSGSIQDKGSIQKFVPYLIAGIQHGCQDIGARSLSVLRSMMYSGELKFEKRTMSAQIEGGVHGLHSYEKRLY

CC(Oc1ccccc1)C(=O)Nc1ccc(Cl)cc1 (configuration not stated)
IC50 [1]: 3.3 µM
IC50 [2]: > 50 µM
IC50 [3]: > 50 µM

O=C(N/C=N\c1cccnc1)C1COc2ccccc2O1 (configuration not stated) [N-[(Z)-N-(pyridin-3-yl)carboximidoyl]-2,3-dihydro-1,4-benzodioxine-2-carboxamide, K]
IC50 [1]: 19 µM
IC50 [2]: > 500 µM
IC50 [3]: > 500 µM

O=c1[nH]c2ccc(Oc3ccc4[nH]c(=O)c(=O)[nH]c4c3)cc2[nH]c1=O [Tetrahydroquinoxalin analog, J]
IC50 [1]: 5.9 µM
IC50 [2]: > 50 µM
IC50 [3]: > 50 µM

COC(=O)c1c(C)c(=O)[nH]c2ccccc12 [methyl 3-methyl-2-oxo-1,2-dihydroquinoline-4-carboxylate, Compound E]
IC50 [1]: 1.6 µM
IC50 [2]: > 25 µM
IC50 [3]: > 25 µM
